Assays:
cdk4/cyclin D1 = cdk4/cyclin D1 (Homo sapiens, UniProt P11802); assay: Cyclin-dependent kinase assay, cdk4/cyclin D1; type: biochemical; details: cyclin D1/cdk4; GST-pRb substrate, 10 µM ATP
NCI-H460 = assay: In vitro proliferation assay (MTT), NCI-H460; type: cell-based; details: Homo sapiens, NCI-H460, read-out: H-460 Lung (IC50 µM)
In short: (§1)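 Plate 1000–2500 cells/well, RPMI 1640 + 5 % FBS, 3 mM L-glutamine; attach overnight → compound treatment 3 days → MTT, 37 C, 2–4 hr → remove medium, solubilize in DMSO → absorbance 570 nm → IC50.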

HL-60 = assay: In vitro proliferation assay (MTT), HL-60; type: cell-based; details: Homo sapiens, HL-60, read-out: HL-60 Leuk. (IC50 µM)
In short: as §1

PC-3 = assay: In vitro proliferation assay (MTT), PC-3; type: cell-based, human; details: Homo sapiens, PC-3, read-out: PC-3 Prostate (IC50 µM)
In short: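 MTT viability, 3 d compound treatment; seeding 1000–2500 cells/well, overnight attachment; formazan in DMSO, A570; IC50 fitted from raw absorbance.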

[1] = Red blood cell binding, mouse whole blood; type: in vitro ADME; details: 30 minutes at 37°C, 500 ng/ml
Description: Compounds, including one positive control, are assessed for red blood cell (RBC) uptake, using a modified procedure based on the protocol reported in Sun, J.X.S., et al. High-performance liquid chromatographic analysis, plasma protein binding and red blood cell partitioning of phenprobamate. Biopharmaceutics and Drug Disposition, 8 (1987) 341-351.
Briefly, RBC uptake is evaluated by comparison of the levels in spiked plasma (n=3) and plasma isolated from spiked whole blood (n=3). Compounds are incubated with human and mouse whole blood, respectively, for 30 minutes at 37°C using a nominal concentration of 500 ng/ml. Following centrifugation, the plasma is removed and submitted for analysis. Each compound is also spiked into blank plasma at a nominal concentration of 500 ng/ml, and submitted for analysis. Levels in the two plasma samples (Cp' and Cp in the equation below) and the blood hematocrit are used to determine the red blood cell to plasma ratio (Crbc/Cp). (Crbc)/(Cp) = (Cpʹ)/(Cp•H)-((1-H))/(H) [formula] In equation 1, Cp' is the level of drug in the spiked "blank" plasma, Cp is the level of drug in the plasma of spiked whole blood, and H is the hematocrit. The hematocrit values are determined as 0.4 for human whole blood and 0.41 for mouse whole blood. The samples are analyzed with ESI LC/MS, using positive ion detection with an internal standard.
The red blood cell to plasma ratio is determined for each compound using equation 1. Tables 6 and 7 summarize the respective mean Crbc/Cp values and standard deviations for mouse and human whole blood, respectively, in descending order based on the red blood cell to plasma ratio, where"*" denotes Positive Control, and "ND" denotes Not Determined. MDL 108552 is included as a positive control for red blood cell uptake. Table 6. Red Blood Cell to Plasma Ratio for compounds in mouse whole blood

in vivo = details: male, Hsd:ICR (CD-1), mouse, plasma
cdk2/cyclin E = cdk2/cyclin E (Homo sapiens, UniProt P24941); assay: Cyclin-dependent kinase assay, cdk2/cyclin E; details: CDK2 IC50, nM, GST-pRb substrate, 10 µM ATP
[2] = Bioavailability experiment in mice given single intravenous cassette doses; details: for Cls: mice plasma, single intravenous cassette dose; for Conc. in plasma: single 15 mg/kg intravenous cassette dose (3 mg/kg/compound), BLQ = below assay quantification limit (approximately 1 ng/ml)
[3] = 3 mg/kg/compound (15 mg/kg Total Dose), Cassette #3

Sequence of cdk4/cyclin D1 (P11802 whole entry): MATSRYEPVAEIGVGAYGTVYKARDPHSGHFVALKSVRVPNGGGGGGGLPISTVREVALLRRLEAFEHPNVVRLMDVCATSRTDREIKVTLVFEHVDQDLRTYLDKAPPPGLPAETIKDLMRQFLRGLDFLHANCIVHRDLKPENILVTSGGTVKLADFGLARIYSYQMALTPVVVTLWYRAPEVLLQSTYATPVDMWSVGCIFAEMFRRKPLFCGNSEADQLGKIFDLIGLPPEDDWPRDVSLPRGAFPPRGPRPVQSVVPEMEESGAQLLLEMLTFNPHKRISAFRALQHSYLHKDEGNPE
Sequence of cdk4/cyclin D1 (P24385 whole entry partner): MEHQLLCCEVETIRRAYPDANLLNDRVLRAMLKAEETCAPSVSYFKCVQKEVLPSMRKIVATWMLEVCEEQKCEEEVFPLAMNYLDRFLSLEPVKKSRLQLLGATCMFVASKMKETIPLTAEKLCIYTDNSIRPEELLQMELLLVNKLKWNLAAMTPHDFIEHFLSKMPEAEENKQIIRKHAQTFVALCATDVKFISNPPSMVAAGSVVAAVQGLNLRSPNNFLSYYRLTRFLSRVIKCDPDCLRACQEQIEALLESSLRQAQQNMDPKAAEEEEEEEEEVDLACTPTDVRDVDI

| SMILES | IC50 (cdk4/cyclin D1) | IC50 (NCI-H460) | IC50 (HL-60) | IC50 (PC-3) | Mean Red Blood Cell to Plasma Ratio [1] | AUC(0-inf) (in vivo; iv, 3 mg/kg) | Cmax (in vivo; iv, 3 mg/kg) | half-life (in vivo; iv, 3 mg/kg) | IC50 (cdk2/cyclin E) | concentration at 0.083 h (in vivo; intravenous, 3 mg/kg) | concentration at 0.25 h (in vivo; intravenous, 3 mg/kg) | concentration at 0.5 h (in vivo; intravenous, 3 mg/kg) | concentration at 1 h (in vivo; intravenous, 3 mg/kg) | concentration at 3 h (in vivo; intravenous, 3 mg/kg) | concentration at 6 h (in vivo; intravenous, 3 mg/kg) | concentration at 8 h (in vivo; intravenous, 3 mg/kg) | Cls [2, 3] | Conc. in plasma ([2]; mice, Cassette #3, 24 h) | also measured |
| --- | --- | --- | --- | --- | --- | --- | --- | --- | --- | --- | --- | --- | --- | --- | --- | --- | --- | --- | --- |
| COc1ccc(OC(=O)N2CCC(Nc3nc(N[C@H]4CC[C@H](N)CC4)nc4c3ncn4C3CCCC3)CC2)cc1.Cl.Cl [compound 84, trans-4-[2-(4-Amino-cyclohexylamino)-9-cyclopentyl-9H-purin-6-ylamino]-piperidine-1-carboxylic acid 4-methoxy-phenyl ester dihydrochloride] | 69 nM | 0.07 µM | 0.04 µM | 0.12 µM | 3.5 | 965 ng·h/mL | 1510 ng/mL | 1.5 h | 9 nM | – | – | – | – | – | – | – | – | – | concentration at 0.083 h (in vivo; iv, 18 mg/kg): 1510 ± 377 ng/mL; concentration at 0.25 h (in vivo; iv, 18 mg/kg): 883 ± 140 ng/mL; concentration at 0.5 h (in vivo; iv, 18 mg/kg): 446 ± 79 ng/mL; concentration at 1 h (in vivo; iv, 18 mg/kg): 202 ± 37.3 ng/mL; concentration at 3 h (in vivo; iv, 18 mg/kg): 27 ± 2.4 ng/mL; concentration at 6 h (in vivo; iv, 18 mg/kg): 6.1 ± 0.8 ng/mL; concentration at 8 h (in vivo; iv, 18 mg/kg): 2.9 ± 0.2 ng/mL; Conc. (ng/ml) in plasma ([2]; Cassette #2, single 18 mg/kg intravenous cassette dose, mice, 24 h, BLQ = below assay quantification limit): BLQ; Cls ([2]; 3 mg/kg/compound (18 mg/kg Total Dose), Cassette #2): 51.8 mL/min/kg |
| Cl.Cl.N[C@H]1CC[C@H](Nc2nc(NC3CCN(C(=O)Oc4ccc(F)cc4)CC3)c3ncn(C4CCCC4)c3n2)CC1 [compound 87, trans-4-[2-(4-Amino-cyclohexylamino)-9-cyclopentyl-9H-purin-6-ylamino]-piperidine-1-carboxylic acid 4-fluoro-phenyl ester dihydrochloride] | 27 nM | 0.08 µM | 0.05 µM | – | 3.4 | 513 ng·h/mL | 1170 ng/mL | 1.6 h | 42 nM | 1170 ± 153 ng/mL | 372 ± 35.9 ng/mL | 141 ± 9.5 ng/mL | 65 ± 14 ng/mL | 19.2 ± 6 ng/mL | 4.3 ± 0.7 ng/mL | 3.2 ± 1.6 ng/mL | 97.4 mL/min/kg | BLQ^a | – |
| Cl.Cl.N[C@H]1CC[C@H](Nc2nc(NC3CCN(C(=O)Oc4ccc(Cl)cc4)CC3)c3ncn(C4CCCC4)c3n2)CC1 [compound 88, trans-4-[2-(4-Amino-cyclohexylamino)-9-cyclopentyl-9H-purin-6-ylamino]-piperidine-1-carboxylic acid 4-chloro-phenyl ester dihydrochloride] | 204 nM | 0.06 µM | 0.07 µM | 0.1 µM | 3.5 | 642 ng·h/mL | 1480 ng/mL | 1.9 h | 7 nM | 1480 ± 272 ng/mL | 421 ± 49.9 ng/mL | 150 ± 5.9 ng/mL | 74.6 ± 16.1 ng/mL | 24.8 ± 7.4 ng/mL | 8.9 ± 1.6 ng/mL | 5.4 ± 2 ng/mL | 77.9 mL/min/kg | BLQ | – |
| Cl.Cl.N[C@H]1CC[C@H](Nc2nc(NC3CCN(C(=O)Oc4ccc([N+](=O)[O-])cc4)CC3)c3ncn(C4CCCC4)c3n2)CC1 [compound 89, trans-4-[2-(4-Amino-cyclohexylamino)-9-cyclopentyl-9H-purin-6-ylamino]-piperidine-1-carboxylic acid 4-nitro-phenyl ester dihydrochloride] | 65 nM | 0.03 µM | 0.02 µM | 0.06 µM | 4.7 | 366 ng·h/mL | 642 ng/mL | 1.8 h | 42 nM | 642 ± 49.5 ng/mL | 303 ± 34.3 ng/mL | 142 ± 2.7 ng/mL | 52.4 ± 4.2 ng/mL | 17 ± 4.7 ng/mL | 3.7 ± 1 ng/mL | 3.8 ± 0.5 ng/mL | – | – | Cls ([2]; 3 mg/kg/compound (15 mg/kg Total Dose), Cassette #4): 136.5 mL/min/kg; Conc. in plasma ([2]; mice, Cassette #4, 24 h): BLQ |
